We go through eight substances from patent publication US9249208B2, “Citrulline peptides derived from fibrin and recognized by rheumatoid arthritis specific autoantibodies, and the use thereof” (Biomerieux, priority 2004, dated 2016).

Where no end group is shown, it is not given here. [ ]: non-standard residue; d: D form. Cit = NC(=O)NCCC[C@H](N)C(=O)O

Holding throughout (type): binding, human
In experiment [1] the test system is anti-citrullinated protein autoantibodies (ACPAs). The experiment in a line: ELISA comparing amidated and nonamidated β60-74Cit60,72,74 with serum mixtures A and B. The note with it: coating in PBS, versus noncitrullinated β60-74, mean of two experiments. The source says: ELISA plates were coated with the peptide β60-74Cit60,72,74, in which the C-terminal function of the carboxy-terminal citrullyl residue is not amidated (form carrying a terminal COOH function, hereinafter referred to as “nonamidated form”), with the peptide […], in which the C-terminal function of the carboxy-terminal citrullyl residue is amidated (form carrying a terminal CONH2 function, hereinafter referred to as “amidated form”) and the noncitrullinated peptide β60-74 (in which the C-terminal function of the carboxy-terminal arginyl residue is not amidated), all diluted in PBS. The serum mixtures A and B described in Example 1 were tested according to the method described in Example 2. As in Example 2, the specific reactivity of the peptide in nonamidated form or in amidated form corresponded to the difference between the OD obtained with these two citrullinated peptides and that obtained with the noncitrullinated peptide β60-74. […] The results correspond to the mean of two experiments, each comprising two determinations.
(ELISA stands for enzyme-linked immunosorbent assay.)

The test system is the same in experiment [2]. The experiment in a line: ELISA of citrullinated/native fibrin peptide pairs with serum mixtures A and B and control mixture (delta OD). The note with it: mean of two determinations. Here is the method:
Each pair of peptides (citrullinated and noncitrullinated) was assayed by ELISA with a mixture, in equal parts, of 10 sera having no ACPAs (control mixture) and with the 2 mixtures A and B described in Example 1.
Each pair of peptides (native and citrullinated form) was tested on the same plate and a pair of control peptides—citrullinated “filaggrin” peptide cfc6 and its corresponding native peptide cf0 (Schellekens G A, 1998, mentioned above)—was included in each experiment, which made it possible to calculate an inter-assay coefficient of variation and to perform corrections.
All the incubations were carried out for 1 h at 4° C. and were followed by washing in PBS-0.1% Tween. The peroxidase activity was visualized with a solution of ortho-phenylenediamine (2 mg/ml—Sigma) in hydrogen peroxide (0.03%—Sigma). The reaction was stopped after 5 minutes by adding 4M sulfuric acid, and the optical density (OD) at 492 nm was measured by virtue of an automatic spectrophotometer (Multiskan, Thermo Labsystems).
The specific reactivity of the mixtures of sera with regard to the citrullinated peptides corresponded to the difference between the OD obtained with the citrullinated peptide and that obtained with the corresponding native peptide (delta OD). The results correspond to the mean of two determinations. Any citrullinated peptide making it possible to obtain a delta OD of greater than 0.250 for at least one of the two mixtures A and B after coating in at least one of the three buffers, was considered to be reactive.

Experiment [3] has the same test system. The experiment in a line: ELISA of reactive citrullinated fibrin peptides with the 20 individual sera of mixtures A and B. The note with it: for Number of positive sera: sera with delta OD not <0.25 out of sera tested (20, or 10 of mixture A only); for delta OD: best coating buffer per peptide. Here is the method:
The 14 peptides carrying the most reactive epitopes (delta OD≧0.5 for one or other of the mixtures of serum (A and B) with at least one of the three coating buffers) were tested independently with the 20 sera constituting the mixtures A and B, in order to evaluate the reactivity profile of each of these peptides. The tests were carried out by ELISA under the same conditions as in Example 2 above, with the exception that, for each pair of peptides, the coating buffer selected was that that had made it possible to obtain the strongest reactivity with respect to this peptide during the screening (the buffer for which the sum of the delta ODs obtained respectively for the serum mixtures A and B was at a maximum). […] Thus, for each serum, the dilution that made it possible to obtain an OD of 1 by ELISA on deiminated fibrinogen was selected (Nogueira L, 2002, mentioned above). The dilutions ranged from 1/20 to 1/2700.

Setting [4] is: Mixture A of sera 1/50, coating buffer PBS pH 7.4.
The mark [5] stands for this setting: Mixture A of sera 1/50, coating buffer acetate pH 5.0.
[6] abbreviates: Mixture A of sera 1/50, coating buffer carbonate pH 9.0.
Where [7] appears, read: Mixture B of sera 1/50, coating buffer PBS pH 7.4.
Where [8] appears, read: Mixture B of sera 1/50, coating buffer acetate pH 5.0.
Setting [9] is: Mixture B of sera 1/50, coating buffer carbonate pH 9.0.

In the case of “β60-74Cit60, 72, 74 nonamidated: citrullinated synthetic peptide, fibrin β-chain residues 60-74, C-terminal citrullyl not amidated (terminal COOH) (RPAPPPISGGGYRAR; HELM PEPTIDE1{[Cit].P.A.P.P.P.I.S.G.G.G.Y.[Cit].A.[Cit]}$$$$V2.0; N-terminus assumed; SMILES CC[C@H](C)[C@H](NC(=O)[C@@H]1CCCN1C(=O)[C@@H]1CCCN1C(=O)[C@@H]1CCCN1C(=O)[C@H](C)NC(=O)[C@@H]1CCCN1C(=O)[C@@H](N)CCCNC(N)=O)C(=O)N[C@@H](CO)C(=O)NCC(=O)NCC(=O)NCC(=O)N[C@@H](Cc1ccc(O)cc1)C(=O)N[C@@H](CCCNC(N)=O)C(=O)N[C@@H](C)C(=O)N[C@@H](CCCNC(N)=O)C(=O)O)”, the “delta OD” value in experiment [1] (Mixture A) is recorded as 0.30; in experiment [1] (Mixture B), 1.16.
For “α588-602Cit591: citrullinated synthetic peptide, fibrin α-chain residues 588-602 (second series) (SYN[Cit]GDSTFESKSYK)”, the “delta OD (citrullinated minus native peptide, 492 nm)” value amounted to 0.16 in experiment [2] (setting [4]); 0.05 in experiment [2] (setting [5]); 0.36 in experiment [2] (setting [6]); 0.33 in experiment [2] (setting [7]); 0.06 in experiment [2] (setting [8]); 0.67 in experiment [2] (setting [9]). Further, the “Number of positive sera” value in experiment [3] is given as 2/20. Also, the “delta OD” value amounted to 1.34 in experiment [3] (serum 97.0169, dilution 1/400) and 0.79 in experiment [3] (serum 97.1795, dilution 1/50).
In the case of “α411-425Cit425: citrullinated synthetic peptide, fibrin α-chain residues 411-425 (GTFEEVSGNVSPGT[Cit])”, the “delta OD (citrullinated minus native peptide, 492 nm)” value was 0.16 in experiment [2] (setting [4]); 0.09 in experiment [2] (setting [5]); 0.56 in experiment [2] (setting [6]); 0.66 in experiment [2] (setting [7]); 0.38 in experiment [2] (setting [8]); 0.43 in experiment [2] (setting [9]). In addition, the “Number of positive sera” value in experiment [3] is 1/20. For the same substance, in experiment [3] (serum 97.1210, dilution 1/300), the “delta OD” value was 0.84.
Turning to “α183-197Cit186,190: citrullinated synthetic peptide, fibrin α-chain residues 183-197 (second series) (SCS[Cit]ALA[Cit]EVDLKDY)”, the “delta OD (citrullinated minus native peptide, 492 nm)” value in experiment [2] (setting [4]) was found to be 1.68; in experiment [2] (setting [5]), 0.41; in experiment [2] (setting [6]), 1.36; in experiment [2] (setting [7]) it was 0.15; in experiment [2] (setting [8]), 0.01; in experiment [2] (setting [9]), 0.07. The “Number of positive sera” value in experiment [3] is 3/10. For the same substance, the “delta OD” value in experiment [3] (serum 97.0311, dilution 1/200) is 0.87; in experiment [3] (serum 97.0459, dilution 1/60), 3.21; in experiment [3] (serum 97.0506, dilution 1/75), 0.85.
Consider “α561-575Cit573: citrullinated synthetic peptide, fibrin α-chain residues 561-575 (SSHHPGIAEFPS[Cit]GK)”, for which the “delta OD (citrullinated minus native peptide, 492 nm)” value came out at 0.30 in experiment [2] (setting [4]); 0.05 in experiment [2] (setting [5]); 0.01 in experiment [2] (setting [6]); 0.52 in experiment [2] (setting [7]); 0.14 in experiment [2] (setting [8]); 0.17 in experiment [2] (setting [9]). Besides, the “Number of positive sera” value in experiment [3] was 5/20. For the same substance, the “delta OD” value came out at 0.30 in experiment [3] (serum 97.0311, dilution 1/200); 0.38 in experiment [3] (serum 97.0459, dilution 1/60); 1.95 in experiment [3] (serum 97.0794, dilution 1/50); 0.71 in experiment [3] (serum 97.1474, dilution 1/20); 0.53 in experiment [3] (serum 97.1548, dilution 1/60).
For the substance “β210-224Cit224: citrullinated synthetic peptide, fibrin β-chain residues 210-224 (QKLESDVSAQMEYC[Cit])”, the “delta OD (citrullinated minus native peptide, 492 nm)” value is on record as 0.29 in experiment [2] (setting [4]); 0.25 in experiment [2] (setting [5]); 1.14 in experiment [2] (setting [6]); 0.60 in experiment [2] (setting [7]); 0.00 in experiment [2] (setting [8]); 1.56 in experiment [2] (setting [9]). For the same substance, the “Number of positive sera” value in experiment [3] is recorded as 6/20. Further, the “delta OD” value came out at 0.46 in experiment [3] (serum 97.0311, dilution 1/200); 0.36 in experiment [3] (serum 97.0323, dilution 1/120); 0.67 in experiment [3] (serum 97.0796, dilution 1/500); 0.33 in experiment [3] (serum 97.0907, dilution 1/300); 0.72 in experiment [3] (serum 97.1210, dilution 1/300); 0.49 in experiment [3] (serum 97.1795, dilution 1/50).
For the substance “α171-185Cit178,181: citrullinated synthetic peptide, fibrin α-chain residues 171-185; fits SEQ ID NO: 4 VDIDIKIX1SCX2GSCS (VDIDIKI[Cit]SC[Cit]GSCS; cysteine pairing not given here)”, the “delta OD (citrullinated minus native peptide, 492 nm)” value in experiment [2] (setting [4]) is given as 0.29; in experiment [2] (setting [5]) it was 0.15; in experiment [2] (setting [6]), 0.75; in experiment [2] (setting [7]) it was 0.21; in experiment [2] (setting [8]), 0.08; in experiment [2] (setting [9]), 0.47. Further, the “Number of positive sera” value in experiment [3] is given as 9/20. Also, the “delta OD” value in experiment [3] (serum 97.0311, dilution 1/200) worked out at 1.95; in experiment [3] (serum 97.0459, dilution 1/60), 0.29; in experiment [3] (serum 97.0468, dilution 1/700) it was 0.42; in experiment [3] (serum 97.0524, dilution 1/200), 0.59; in experiment [3] (serum 97.0794, dilution 1/50) it was 2.09; in experiment [3] (serum 97.0907, dilution 1/300), 0.44. Also, the “delta OD” value in experiment [3] (serum 97.1474, dilution 1/20) worked out at 1.08; in experiment [3] (serum 97.1548, dilution 1/60) it was 0.71; in experiment [3] (serum 97.1795, dilution 1/50), 0.57.
As for “β281-295Cit285,294: citrullinated synthetic peptide, fibrin β-chain residues 281-295 (second series) (VIQN[Cit]QDGSVDFG[Cit]K)”, the “delta OD (citrullinated minus native peptide, 492 nm)” value came out at 0.60 in experiment [2] (setting [4]); 0.12 in experiment [2] (setting [5]); 0.61 in experiment [2] (setting [6]); 0.75 in experiment [2] (setting [7]); 0.11 in experiment [2] (setting [8]); 0.71 in experiment [2] (setting [9]). Moreover, the “Number of positive sera” value in experiment [3] was 6/20. For the same substance, the “delta OD” value in experiment [3] (serum 97.0323, dilution 1/120) is 1.16; in experiment [3] (serum 97.0459, dilution 1/60), 2.22; in experiment [3] (serum 97.0506, dilution 1/75), 1.80; in experiment [3] (serum 97.0524, dilution 1/200) it was 0.25; in experiment [3] (serum 97.0794, dilution 1/50) it was 0.26; in experiment [3] (serum 97.1474, dilution 1/20), 0.36.
